# Test results from publication PMC3950855 (British Journal of Cancer, 2014).
# Experiment: Plasma pharmacokinetics by LC/PDA
# Details: during combination with panobinostat
compound,measurement,value
"Cc1ccc(NC(=O)c2ccc(CN3CCNCC3)cc2)cc1Nc1nccc(-c2cccnc2)n1 [desmethyl-IM, N-desmethyl-IM]",actual plasma levels of desmethyl-IM vs prediction,as predicted
